Laboratory results as given in US10912788B2, “Methods and compositions for preventing and treating conditions related to alpha-synuclein” (PurePharm, Inc., priority 2018, dated 2021).

Legend:
[1] = system: PD patients with chronic constipation; assay: Open-label pilot study of GlcNAc (Villicote) on motor and constipation symptoms in Parkinson's Disease; format: in vivo, human
Excerpt: Participants were enlisted in a movement disorders outpatient clinic in Toronto, Canada. Inclusion criteria were a diagnosis of PD according to UK PD society brain bank criteria and chronic constipation that was not improved by laxatives. Exclusion criteria were the co-occurrence of conditions biasing results and/or changes of medications (including anti-constipation drugs).
This was an open-label study that sought to evaluate the efficacy of GlcNAc (Villicote®, Wellesley Therapeutics Inc.) on PD patients with chronic constipation who have previously used laxatives to relieve symptoms of constipation, to little or no avail. […] The self-reported assessments evaluated motor condition and dysfunction (fluctuation and dyskinesia) using section IV of the Unified Parkinson's Disease Rating Scale (UPDRS IV) and asking about presence and frequency of delayed onset (Delayed ON) and Failure of “on” response (no ON); Perceived severity and improvement in of motor dysfunction, and constipation by means of both Patients' Global Impression-Severity (PGI-S) and Patients' Global Impressions of Change (PGI-C) scale accordingly. Severity of Constipation was also evaluated by means of questions 5 and 6 of SCOPA-AUT [17] and the Constipation Scoring System (CSS). In addition, side-effects experienced while on Villicote and qualitative feedback on the product was noted.
Their age and disease duration was 65.7±7.5 and 11.7±5.1 years, respectively. Mean UPDRS-III at study entry was 22.1±10.9.

[2] = cited from earlier work
[3] = system: pediatric treatment-resistant inflammatory bowel disease (Crohn's disease and ulcerative colitis patients); details: oral administration; reduced symptoms of gut inflammation, increased sulphated GAG expression; cited from earlier work
[4] = PD patients treated with GlcNAc
[5] = PD patients treated with GlcNAc, motor fluctuations

## CC(=O)N[C@H]1C(O)O[C@H](CO)[C@@H](O)[C@@H]1O (some centres unmarked) [GlcNAc, N-acetylglucosamine]
[1]; After GlcNAc, 1 month time point, PD patients, before GlcNAc 0.0
  No-ON: 0.0
[1]; After GlcNAc, 1 month time point, PD patients, before GlcNAc 0.1 ± 0.4
  Delayed-ON: 0.1 ± 0.4
[1]; After GlcNAc, 1 month time point, PD patients, before GlcNAc 3.9 ± 1.9
  SCOPA-AUT (questions 5 and 6): 3.1 ± 1.7
[1]; After GlcNAc, 1 month time point, PD patients, before GlcNAc 3.9 ± 2.4
  UPDRS-IV: 3.9 ± 2.4
[1]; After GlcNAc, 1 month time point, PD patients, before GlcNAc 9.4 ± 6.1, Wilcoxon Z=−2.043, P=0.041
  CSS (Constipation Scoring System): 6.5 ± 3.9
[1]; PD patients
  tolerability: well-tolerated
[1]; PD patients failing drugs for constipation
  anti-constipation effect: effective anti-constipation agent
[1]; [4]
  PGI-I Constipation: 1.6 ± 1.4
  PGI-S Constipation: 2.8 ± 1.3
[1]; [5]
  PGI-I Fluctuation: 0
  PGI-S Fluctuation: 0.8 ± 0.9
[1]; PD patients, short follow-up
  effect on motor functions: No effect was observed
[2]
  solubility in water: 25%
[3]
  efficacy in pediatric treatment-resistant inflammatory bowel disease: therapeutic efficacy
